Data from patent EP0075626A1, “Novel rutin nona- and deca(H-)sulfate salts, methods of preparing novel salts, and use of novel salts of complement inhibitors” (AMERICAN CYANAMID COMPANY, priority 1981, dated 1983).

Molecular target: T1, activated complement protein Cl (Homo sapiens, UniProt P09871)
T1 sequence (P09871 16-437 limits assumed): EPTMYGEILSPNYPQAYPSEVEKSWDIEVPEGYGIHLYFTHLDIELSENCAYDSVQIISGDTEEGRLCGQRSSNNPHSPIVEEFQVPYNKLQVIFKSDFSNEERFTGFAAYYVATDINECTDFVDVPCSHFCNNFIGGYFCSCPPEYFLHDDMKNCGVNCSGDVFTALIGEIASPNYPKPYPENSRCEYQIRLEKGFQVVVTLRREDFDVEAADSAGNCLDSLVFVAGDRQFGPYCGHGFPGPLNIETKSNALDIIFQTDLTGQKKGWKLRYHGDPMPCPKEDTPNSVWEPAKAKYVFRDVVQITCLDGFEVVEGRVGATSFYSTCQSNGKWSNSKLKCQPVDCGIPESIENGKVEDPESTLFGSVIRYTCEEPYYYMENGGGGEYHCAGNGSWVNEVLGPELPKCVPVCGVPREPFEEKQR
T1 sequence (P09871 438-688 limits assumed): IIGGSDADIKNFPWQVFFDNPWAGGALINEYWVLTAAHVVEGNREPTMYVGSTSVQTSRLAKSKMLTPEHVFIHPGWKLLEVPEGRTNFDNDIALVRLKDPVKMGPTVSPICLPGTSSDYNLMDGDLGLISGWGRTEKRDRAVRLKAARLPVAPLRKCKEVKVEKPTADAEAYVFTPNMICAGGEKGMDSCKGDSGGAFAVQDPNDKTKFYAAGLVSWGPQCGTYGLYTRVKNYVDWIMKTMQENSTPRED
Assay: Test Code 026 (C 1 inhibitor): protection of fluid phase C2 from activated C1 in the presence of C4, serial dilution assay
Type: biochemical
Conditions: for times as active as the mixture of hexa- through deca- salts produced by Example 2 of European Application No. 13470A: Test Code 026, worked out from well numbers, two-fold serial dilutions; for In Vitro Activity Test Code 026: activity in wells, two-fold serial dilution assay, the higher the well number the higher the activity
Description: An active inhibitor protects C2 from Cl and C4.
This test measures activity in wells by a serial dilution assay. The higher the well number the higher is the activity. The serial dilutions are two-fold, so that in the test shown above the rutin deca(H-)sulfate sodium salt in accordance with this invention is 16 times as active as the mixture of hexa- through deca- salts produced by Example 2 of European Application No. 13470A, whilst the rutin nona(H-)sulfate sodium salt in accordance with this invention is 8 times as active as the aforesaid mixture.

Substance	times as active as the mixture of hexa- through deca- salts produced by Example 2 of European Application No. 13470A [times]	In Vitro Activity Test Code 026
Rutin nona (H-sulfate) Sodium Salt [Rutin nona(H-)sulfate sodium salt]	8	+10
Rutin deca (H-sulfate) Sodium Salt [Rutin deca(H-)sulfate sodium salt]	16	+11
